The source of these data is ChEMBL document CHEMBL1125884, “Synthesis and biochemical studies of 16- or 19-substituted androst-4-enes as aromatase inhibitors” (J Med Chem, 1991).

The target in assay [1] is T1, Aromatase (Homo sapiens, UniProt P11511).
T1 sequence (P11511 whole entry): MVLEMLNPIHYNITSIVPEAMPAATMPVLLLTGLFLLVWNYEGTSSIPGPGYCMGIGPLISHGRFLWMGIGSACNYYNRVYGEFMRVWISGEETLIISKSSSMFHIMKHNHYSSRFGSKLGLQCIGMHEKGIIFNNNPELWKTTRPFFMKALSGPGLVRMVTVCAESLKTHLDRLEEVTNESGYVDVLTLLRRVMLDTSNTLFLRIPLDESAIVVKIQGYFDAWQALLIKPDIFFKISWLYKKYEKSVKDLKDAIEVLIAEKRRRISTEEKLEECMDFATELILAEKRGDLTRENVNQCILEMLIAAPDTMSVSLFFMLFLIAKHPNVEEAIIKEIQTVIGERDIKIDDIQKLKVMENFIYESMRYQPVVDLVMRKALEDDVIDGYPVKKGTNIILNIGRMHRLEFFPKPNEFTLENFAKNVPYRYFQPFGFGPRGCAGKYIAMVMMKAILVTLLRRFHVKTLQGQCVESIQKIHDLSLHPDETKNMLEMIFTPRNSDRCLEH
Description: Inhibition of 1 uM [1-beta-3H]-androstenedione binding to human placental microsome Cytochrome P450 19A1

The target in assay [2] is T1, Aromatase. Nature of the assay: Binding affinity for human placental microsome cytochrome P450 19A1 with 1 uM [1-beta-3H]-androstenedione.

Consider `CC12CCC3C(CCC4=CCCCC43C(F)F)C1CCC2=O` (centres undefined), for which the half-inhibitory concentration (IC50) (as a rule, the concentration needed to halve the response being measured) on Aromatase [1] was 1200 nM. Also, at Aromatase [2], the inhibition constant Ki (usually the equilibrium dissociation constant of an inhibitor or competing ligand from its target) was found to be 443 nM. Taken in the same sequence, the figures for `C[C@]12CC[C@H]3[C@@H](CCC4=CCCC[C@@]43CO)[C@@H]1CCC2=O` were 270 nM and 13 nM. In the case of `CC(=O)OCC12CCCC=C1CCC1C2CCC2(C)C(OC(C)=O)CCC12` (centres undefined), on Aromatase [1], the midpoint of inhibition, the IC50, lay at 38000 nM. Take `CC12CCCC=C1CCC1C2CCC2(C)C(O)CCC12` (centres undefined): the 50% inhibitory concentration (IC50) at Aromatase [1] is 7300 nM. Affinity on Aromatase [2] was put at a Ki of 830 nM. Consider `CC12CCC3C(CCC4=CCCCC43CO)C1CCC2O` (centres undefined), for which the IC50 on Aromatase [1] was 2300 nM. On Aromatase [2], this compound showed a Ki of 170 nM. Taken in the same sequence, the figures for `CC12CCC3C(CCC4=CCCCC43C)C1C[C@H](Br)C2=O` (some centres undefined) were 5900 nM and 455 nM. The compound `CC(=O)OC1CCC2C3CCC4=CCCCC4(CO)C3CCC12C` (centres undefined) showed a 50% inhibitory concentration (IC50) at Aromatase [1] of 100000 nM. For the compound `C#CC(O)C12CCCC=C1CCC1C3CCC(=O)C3(C)CCC12` (centres undefined), the IC50 against Aromatase [1] was 62000 nM. In addition, the affinity on Aromatase [2] corresponds to a Ki of 7750 nM. Consider `C[C@]12CC[C@H]3[C@@H](CCC4=CCCC[C@@]43C(F)F)[C@@H]1CC[C@@H]2O`, for which inhibition against Aromatase [1] was half-maximal at 26000 nM (IC50). In the case of `CC(=O)OCC12CCCC=C1CCC1C2CCC2(C)C(O)CCC12` (centres undefined), the midpoint of inhibition on Aromatase [1], the IC50, lay at 44000 nM. Regarding `CC12CCC3C(CCC4=CCCCC43C)C1C[C@@H](Br)C2=O` (some centres undefined), on Aromatase [1], the IC50 was 4100 nM. The compound also yielded an inhibitory constant (Ki) at Aromatase [2] of 228 nM.

As for `C[C@]12CCC(=O)C(O)=C1CC[C@@H]1[C@@H]2CC[C@]2(C)C(=O)CC[C@@H]12` [FORMESTANE], the IC50 on Aromatase [1] stood at 410 nM.
